Results from patent US5496856A, “Aspartame for its application as a therapeutically active substance” (priority 1993, dated 1996).
“Also recorded” adds a separate entry of the source. Peptide text beside a SMILES is read from it.

Columns and labels:
[1] = Plasma concentration of aspartame after oral administration; assay type: in vivo; details: within 24h, per os
human plasma proteins [2] = experiment: OTA binding to human plasma proteins, condition (i): aspartame in upper (plasma) compartment; assay type: in vitro ADME
Procedure: (§1) A further study was performed in order to determine the effect of aspartame on OTA binding on human plasma proteins in vitro.
(§2) An in-vitro study was performed on plasma samples obtained from healthy human volunteers, from a French blood bank (Centre de transfusion sanguine in Bordeaux), using citrate as anticoagulant. Blood samples were centrifuged at 1800 g for 30 minutes. This pooled human plasma contained 41±3 g of proteins per liter.
(§3) Static diffusion cells (polypropylene, homemade according to the model provided by Nalgene, USA) containing two compartments (upper and lower) separated by a dialysing membrane having a 10 000 D exclusion limit (Sigma Chemical, USA) were used. This membrane allows OTA and aspartame diffusion and not protein diffusion.
(§4) A human plasma sample was placed in the upper compartment and a medium (RPMI 1640, Sigma chemical, USA) in the lower one.
(§5) The plasma binding properties of OTA were evaluated under two different conditions:
(i) The aspartame at a concentration of 10 μg/ml was added in the upper compartment containing human plasma proteins before introducing OTA at three different concentrations (20, 100, and 500 μg/ml) in the lower compartment;
(§6) OTA concentration in the upper compartment was determined by HPLC (Mobile phase: methanol, acetonitrile, acetic acid, sodium acetate 5 mM (300: 300: 400: 14 v/v/v/v); injection volume 50 μl; flow rate 1 ml/min; run time for one cycle: 10 min and fluorescence detection (excitation at 340 nm and emission at 465 nm).
(§7) Before extraction of OTA from the plasma, all the studied samples of plasma, which had already fixed OTA, were dialysed against free OTA RPMI medium for at least 15 minutes, one or several times, until no more OTA was found in the lower compartment.
(§8) The results obtained under condition (i) as defined hereinabove are reported in Table I, whereas the results obtained under condition (ii) are reported in Table II.

[3] = Serum and urine assays of ochratoxin (urinary elimination); assay type: in vivo, rats
Procedure: (§9) The animals used in this experiment are male rats of the Wistar strain weighing 160±10 g.
(§10) The aspartame is administered by gavage, at the same time as the ochratoxin A, every 48 hours for 3 weeks.
(§11) Group I: control rats (blanks)
(§12) Group II: control rats treated with 0.1 M NaHCO3, pH 7.4
(§13) Group III: rats treated with ochratoxin A (289 μg/kg)
(§14) Group IV: rats treated with ochratoxin A (289 μg/kg)+aspartame (25 mg/kg).
(§15) The control and treated rats are placed in a metabolic cage for 24 hours for urine sampling and then sacrificed.

renal cells = experiment: Entry of ochratoxin into renal cells; details: ochratoxin A with aspartame
glomerular filtration [4] = experiment: Serum and urine creatinine in ochratoxin A-treated rats; assay type: in vivo, male rats of the Wistar strain
Procedure: The animals used in this experiment are male rats of the Wistar strain weighing 160±10 g. The animals are classified in order of increasing weight and distributed randomly into 4 groups of 6 rats (homogeneous distribution by randomization).
An amount of ochratoxin A corresponding to 289 μg/kg of body weight is given to the rats by gavage every 48 hours for 3 weeks; the toxin is dissolved in 0.3 ml of a 0.1 M solution of NaHCO3, pH 7.4.

human plasma proteins [5] = experiment: OTA binding to human plasma proteins, condition (ii): OTA with or without aspartame in lower compartment; assay type: in vitro ADME
Procedure: as §1, §2, §3, §4, §5
(ii) The upper compartment contained human plasma proteins only and OTA (20, 100 and 500 μg/ml) was added into the lower compartment alone or concommitantly with 10 μg/ml aspartame.
as §6, §7, §8
Under condition (ii) (Table II), the aspartame was put in the same compartment as OTA in the non-plasmatic compartment to mimic the stomach (the ration OTA/aspartame=1.5 to 36).

tubular cells = experiment: Urinary renal enzyme activities (LAP, PAL, LDH, γ-GT) in rats treated with ochratoxin A; assay type: in vivo; details: aspartame 25 mg/kg + ochratoxin A 289 μg/kg, 3 weeks
Procedure: as §9, §10, §11, §12, §13, §14, §15

[6] = Toxic oxidative effects of ochratoxin A in vivo and in vitro
[7] = Urine proteins in rats treated with ochratoxin A; assay type: in vivo; details: aspartame 25 mg/kg + ochratoxin A 289 μg/kg, 3 weeks
Procedure: as §9, §10, §11, §12, §13, §14, §15

glomerular filtration [8] = details: mice
Procedure: Male mice of the Swiss strain weighing 32±2 g are distributed into cages in groups of 5. The animals are classified in order of increasing weight and distributed randomly into 4 groups of 5 mice (homogeneous distribution by randomization).
An amount of ochratoxin A corresponding to 289 μg/kg of body weight is given to the mice via an esophageal tube every 48 h for one week; the toxin is dissolved in 0.3 ml of 0.1M NaHCO3, pH 7.4.
0.3 ml of 0.1 M NaHCO3, pH 7.4, is given in the same way to the mice used as controls.
4 groups of 5 mice were studied.
Group I: control mice treated with 0.1 M NaHCO3, pH 7.4
Group II: mice treated with ochratoxin A (289 μg/kg)
Group III: mice treated with ochratoxin A (289 μg/kg)+aspartame (30 mg/kg)
Group IV: control mice treated with aspartame only.
The aspartame is administered in 0.3 ml of H2 O one hour after the last administration of ochratoxin A.
The mice are placed in a metabolic cage for 15 hours and then sacrificed.
The creatinine is assayed in the 15-hour urine and serum.

DNA = DNA adducts by postlabeling with ATP gamma 32P in organs (genotoxicity); assay type: in vivo, rats
Procedure: as §9, §10, §15
The organs of the same animals were used for extraction of the DNA, which was analyzed by the technique of postlabeling with ATP gamma 32P in order to evaluate the genotoxicity by the presence of adducts with DNA bases.

[9] = OTA 20 μg/ml, 30 min, aspartame 10 μg/ml
[10] = OTA 20 μg/ml, 60 min, aspartame 10 μg/ml
[11] = OTA 20 μg/ml, 120 min, aspartame 10 μg/ml
[12] = OTA 100 μg/ml, 30 min, aspartame 10 μg/ml
[13] = OTA 100 μg/ml, 60 min, aspartame 10 μg/ml
[14] = OTA 100 μg/ml, 120 min, aspartame 10 μg/ml
[15] = OTA 500 μg/ml, 30 min, aspartame 10 μg/ml
[16] = OTA 500 μg/ml, 60 min, aspartame 10 μg/ml
[17] = OTA 500 μg/ml, 120 min, aspartame 10 μg/ml
[18] = rats, aspartame 25 mg/kg + ochratoxin A 289 μg/kg every 48 h, 3 weeks, gavage
[19] = aspartame 30 mg/kg one hour after last ochratoxin A

## COC(=O)[C@H](Cc1ccccc1)NC(=O)[C@@H](N)CC(=O)O [Aspartame, methyl ester of L-aspartyl- L-phenylalanine] (H-Asp-Phe-OMe)
[1]
  oral dose of aspartame giving plasma concentration of 10 mg/l: 400 to 600 mg
Human plasma proteins [2]; [9]
  Quantities of OTA bound to plasma proteins, OTA + Aspartame (Table I): 157 ± 12 ng/mL
Human plasma proteins [2]; [10]
  Quantities of OTA bound to plasma proteins, OTA + Aspartame (Table I): 97 ± 4 ng/mL
Human plasma proteins [2]; [11]
  Quantities of OTA bound to plasma proteins, OTA + Aspartame (Table I): 15 ± 3 ng/mL
Human plasma proteins [2]; [12]
  Quantities of OTA bound to plasma proteins, OTA + Aspartame (Table I): 193 ± 17 ng/mL
Human plasma proteins [2]; [13]
  Quantities of OTA bound to plasma proteins, OTA + Aspartame (Table I): 74 ± 11 ng/mL
Human plasma proteins [2]; [14]
  Quantities of OTA bound to plasma proteins, OTA + Aspartame (Table I): 55 ± 15 ng/mL
Human plasma proteins [2]; OTA 100 μg/ml, aspartame 10 μg/ml
  OTA available that is bound as compared to control without aspartame: 4.5%
Human plasma proteins [2]; [15]
  Quantities of OTA bound to plasma proteins, OTA + Aspartame (Table I): 275 ± 41 ng/mL
Human plasma proteins [2]; [16]
  Quantities of OTA bound to plasma proteins, OTA + Aspartame (Table I): 296 ± 45 ng/mL
Human plasma proteins [2]; [17]
  Quantities of OTA bound to plasma proteins, OTA + Aspartame (Table I): 345 ± 51 ng/mL
Human plasma proteins [2]; OTA 500 μg/ml, aspartame 10 μg/ml
  OTA available that is bound to plasma proteins as compared to control without aspartame: 19.8%
Human plasma proteins [2]; OTA 20 to 500 μg/ml
  dependence of efficiency in preventing OTA binding on OTA concentration: inversely proportional to the concentrations of OTA
Human plasma proteins [2]; Table I, OTA 20 μg/ml, aspartame 10 μg/ml
  OTA available that is bound as compared to the control without aspartame: 2%
Human plasma proteins [2]; Table I, OTA concentrations as high as 20 μg/ml, aspartame 10 μg/ml
  efficiency in preventing the binding of OTA on human plasma proteins: about 98%
Human plasma proteins [2]; aspartame 10 μg/ml, i.e. 10 mg/l
  OTA bound (in words): practically no OTA bound
Human plasma proteins [2]; normal conditions, OTA concentrations lower than 20 μg/ml
  efficiency in preventing the OTA binding on human plasma proteins (conclusion): at least 95%
[3]; serum and urine assays, rats, aspartame 25 mg/kg + ochratoxin A, 3 weeks
  urinary elimination of ochratoxin: very substantially favors urinary elimination of the ochratoxin A; also recorded: significantly increases the urinary elimination of ochratoxin
[3]; summary statement
  effect on metabolism and elimination of ochratoxin A: slow down the metabolism and accelerate the elimination of ochratoxin A
Renal cells
  concentration/entry of ochratoxin in renal cells: limiting the entry of ochratoxin into these cells; also recorded: reducing the concentration of ochratoxin in the renal cells
Glomerular filtration [4]; [18]
  level of serum creatinine: significant reduction in the level of serum creatinine
  level of urine creatinine: parallel increase in the level of urine creatinine, which is comparable to the control level
Glomerular filtration [4]; summary statement
  tubular and glomerular attacks caused by ochratoxin: protects the kidney from the tubular and glomerular attacks caused by ochratoxin
Human plasma proteins [5]; [9]
  Quantities of OTA bound to plasma proteins, OTA + Aspartame (Table II): 159 ± 13 ng/mL
Human plasma proteins [5]; [10]
  Quantities of OTA bound to plasma proteins, OTA + Aspartame (Table II): 53 ± 6 ng/mL
Human plasma proteins [5]; [11]
  Quantities of OTA bound to plasma proteins, OTA + Aspartame (Table II): 39 ± 4 ng/mL
Human plasma proteins [5]; [12]
  Quantities of OTA bound to plasma proteins, OTA + Aspartame (Table II): 245 ± 15 ng/mL
Human plasma proteins [5]; [13]
  Quantities of OTA bound to plasma proteins, OTA + Aspartame (Table II): 459 ± 27 ng/mL
Human plasma proteins [5]; [14]
  Quantities of OTA bound to plasma proteins, OTA + Aspartame (Table II): 587 ± 38 ng/mL
Human plasma proteins [5]; [15]
  Quantities of OTA bound to plasma proteins, OTA + Aspartame (Table II): 516 ± 19 ng/mL
Human plasma proteins [5]; [16]
  Quantities of OTA bound to plasma proteins, OTA + Aspartame (Table II): 1127 ± 89 ng/mL
Human plasma proteins [5]; [17]
  Quantities of OTA bound to plasma proteins, OTA + Aspartame (Table II): 1789 ± 56 ng/mL
Human plasma proteins [5]; OTA in lower compartment (stomach), OTA as high as 20 μg/ml
  efficiency in preventing the binding of OTA on human plasma proteins: more than 95%
Human plasma proteins [5]; Table II, OTA 100 μg/ml, aspartame 10 μg/ml
  prevention of the binding of OTA: 50%
Human plasma proteins [5]; Table II, OTA 500 μg/ml, aspartame 10 μg/ml
  efficiency in preventing OTA binding (in words): no longer efficient
Tubular cells
  effect on the increase in urinary enzymic activities caused by ochratoxin A: appreciably reduces the increase in the enzymic activities caused by ochratoxin A
  urinary enzymic activities vs controls: not being significantly different from those of the controls
[6]
  effect on toxic oxidative effects of ochratoxin A: opposes the toxic oxidative effects of ochratoxin A in vivo and in vitro
[7]
  effect on the ochratoxin-induced increase in the level of urine proteins: reduces the increase, induced by ochratoxin, in the level of urine proteins
Glomerular filtration [8]; [19]
  effect on the increase in serum creatinine: very markedly reduces the increase in serum creatinine
  effect on urine creatinine: increases the level of urine creatinine, which is similar to the control values
Glomerular filtration [8]; aspartame 30 mg/kg with ochratoxin A 289 μg/kg
  effects on serum creatinine and serum creatinine/urine creatinine ratio (glomerular filtration): beneficial
DNA; aspartame 25 mg/kg + OTA 289 μg/kg, 3 weeks
  DNA adducts in organs, aspartame and OTA: virtually complete disappearance of the DNA adducts; also recorded: comparable to those of the controls
DNA; results of the experiments performed
  nephrotoxic and genotoxic effects (overall conclusion): suppresses not only the nephrotoxic effects but also the genotoxic effects
